For one experiment, the system named is PC3 cells. The experiment can be described thus: NAMPT Cell Proliferation Assay (Cell Titer Glo). The note with it: Homo sapiens, PC-3, 120 h, incubated 5 days, cell viability. Type of experiment: cell-based. The gist of the method:
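Viability measured by Cell Titer Glo luminescence after 5-day exposure of attached PC3 cells to compound, dosed as 10-fold serial dilutions ([…]) in RPMI/10% FBS at 37 °C and 5% CO2. Percent inhibition fitted to sigmoidal dose-response curves for IC50.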

Experiment [1] has as its target T1, NAMPT (Homo sapiens, UniProt P43490). Kind of experiment: Time-Resolved Fluorescence Resonance Energy Transfer (TR-FRET) Binding Assay of NAMPT. The note with it: 6.8 nM NAMPT, 200 nM probe, equilibrated 3 hours, no substrates. The method, boiled down: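 IC50s come from four-parameter logistic fits of control-normalized Em520/Em495 TR-FRET ratios (Ex 337 nm) against compound concentration. Before reading, enzyme, probe, antibody and compound equilibrated for 3 h at room temperature.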
(In TR-FRET formats the signal depends on donor and acceptor labels being close together.)

Experiment [2] addresses T1, NAMPT. The experiment can be described thus: TR-FRET Binding Assay of NAMPT with PRPP. To be noted: 2 nM NAMPT, 2 nM probe, 200 µM PRPP and 2.5 mM ATP, equilibrated 16 hours. The method, boiled down:
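Substrates present: PRPP at 200 µM and ATP at 2.5 mM, final, alongside 2 nM enzyme, 2 nM tracer and 1 nM terbium anti-His donor in 2% DMSO. A 16-hour equilibration preceded the time-resolved FRET read, allowing compounds to be enzymatically modified.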

T1 sequence (P43490 whole entry): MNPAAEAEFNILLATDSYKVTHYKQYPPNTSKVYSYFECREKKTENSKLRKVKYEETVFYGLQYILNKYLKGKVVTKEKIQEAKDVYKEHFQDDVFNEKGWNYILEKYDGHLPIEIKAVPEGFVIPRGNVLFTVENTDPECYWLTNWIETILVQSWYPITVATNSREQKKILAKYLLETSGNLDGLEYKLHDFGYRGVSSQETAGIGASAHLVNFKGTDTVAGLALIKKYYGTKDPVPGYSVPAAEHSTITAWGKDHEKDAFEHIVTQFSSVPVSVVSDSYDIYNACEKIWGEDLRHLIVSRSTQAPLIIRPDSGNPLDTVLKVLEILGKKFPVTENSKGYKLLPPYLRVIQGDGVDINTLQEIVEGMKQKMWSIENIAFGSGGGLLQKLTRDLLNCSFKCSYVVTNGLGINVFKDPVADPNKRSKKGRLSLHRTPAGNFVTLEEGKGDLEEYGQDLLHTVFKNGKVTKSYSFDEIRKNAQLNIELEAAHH

A word on the IC50: it is the point on the concentration scale where inhibition reaches its midpoint. Lower therefore signals inhibition by little substance. As to `CC1(C(=O)N2CC(Oc3ccc(NC(=O)N4CC(c5cccnc5)C4)cc3)C2)CC1` [Example 135, N-[4-({1-[(1-methylcyclopropyl)carbonyl]azetidin-3-yl}oxy)phenyl]-3-(pyridin-3-yl)azetidine-1-carboxamide], the concentration for half-maximal inhibition (IC50) with PC3 cells amounted to 8.69 nM; on NAMPT [1], 28.1 nM; on NAMPT [2], 0.376 nM.
In the same order, the values of `CCOCC(=O)N1CC[C@@H](Oc2ccc(NC(=O)N3CC(c4cccnc4)C3)cc2)C1` [Example 328, N-(4-{[(3R)-1-(ethoxyacetyl)pyrrolidin-3-yl]oxy}phenyl)-3-(pyridin-3-yl)azetidine-1-carboxamide] are 52.7 nM, 159 nM and 0.344 nM.
In the same order, the values of `CCCC(=O)N1CCC(Oc2ccc(NC(=O)N3CC(c4cccnc4)C3)cc2)CC1` [Example 43, N-{4-[(1-butanoylpiperidin-4-yl)oxy]phenyl}-3-(pyridin-3-yl)azetidine-1-carboxamide] are 28 nM, 23.7 nM and 0.234 nM.
Consider `O=C(Nc1ccc(C2CCN(C(=O)C3CCCCC3)C2)cc1)N1CC(c2cccnc2)C1` (stereo not drawn) [Example 293, N-{4-[1-(cyclohexylcarbonyl)pyrrolidin-3-yl]phenyl}-3-(pyridin-3-yl)azetidine-1-carboxamide], for which the figures for the IC50 with PC3 cells, at NAMPT [1] and at NAMPT [2] were 70.5 nM, 56.6 nM and 0.21 nM, respectively.
As for `COCC(=O)N1CCC(c2ccc(NC(=O)N3CC(c4cccnc4)C3)cc2)CC1` [Example 184, N-{4-[1-(methoxyacetyl)piperidin-4-yl]phenyl}-3-(pyridin-3-yl)azetidine-1-carboxamide], the half-inhibitory concentration (IC50) was found to be 61.2 nM in the experiment on PC3 cells, 18.5 nM at NAMPT [1] and 0.305 nM at NAMPT [2].
In the same order, the values of `CCC(=O)N1CCC(c2ccc(NC(=O)N3CC(c4cccnc4)C3)cc2)C1` (stereo not drawn) [Example 279, N-[4-(1-propanoylpyrrolidin-3-yl)phenyl]-3-(pyridin-3-yl)azetidine-1-carboxamide] are 47.6 nM, 92.1 nM and 0.204 nM.
With `CCOCC(=O)N1CC=C(c2ccc(NC(=O)N3CC(c4cccnc4)C3)cc2)CC1` [Example 22, N-{4-[1-(ethoxyacetyl)-1,2,3,6-tetrahydropyridin-4-yl]phenyl}-3-(pyridin-3-yl)azetidine-1-carboxamide], the IC50 is 276 nM in the experiment with PC3 cells, 143 nM on NAMPT [1] and 0.63 nM on NAMPT [2].
The like results for `CC(C)CCC(=O)N1CCC(c2ccc(NC(=O)N3CC(c4cccnc4)C3)cc2)C1` (stereo not drawn) [Example 275, N-{4-[1-(4-methylpentanoyl)pyrrolidin-3-yl]phenyl}-3-(pyridin-3-yl)azetidine-1-carboxamide] were, in that order, 34.5 nM, 38.3 nM and 0.363 nM.
In the case of `CC1(C(=O)N2CCC(c3ccc(NC(=O)N4CC(c5cccnc5)C4)cc3)C2)CCCCC1` (stereo not drawn) [Example 276, N-(4-{1-[(1-methylcyclohexyl)carbonyl]pyrrolidin-3-yl}phenyl)-3-(pyridin-3-yl)azetidine-1-carboxamide], the figures for the IC50 with PC3 cells, at NAMPT [1] and at NAMPT [2] were 10 nM, 12.4 nM and 0.347 nM, respectively.
Consider `CC1CC1C(=O)N1CCC(Oc2ccc(NC(=O)N3CC(c4cccnc4)C3)cc2)CC1` (stereo not drawn) [Example 35, N-[4-({1-[(2-methylcyclopropyl)carbonyl]piperidin-4-yl}oxy)phenyl]-3-(pyridin-3-yl)azetidine-1-carboxamide], for which the half-inhibitory concentration (IC50) in the experiment on PC3 cells stood at 90.2 nM; on NAMPT [1], 89.2 nM; on NAMPT [2], 0.492 nM.
The like results for `O=C1CC[C@H](C(=O)N2CC[C@@H](Oc3ccc(NC(=O)N4CC(c5cccnc5)C4)cc3)C2)N1` [Example 305, N-(4-{[(3R)-1-(5-oxo-D-prolyl)pyrrolidin-3-yl]oxy}phenyl)-3-(pyridin-3-yl)azetidine-1-carboxamide] were, in that order, 1820 nM, 435 nM and 0.211 nM.
The like results for `CC1CC1C(=O)N1CCC(c2ccc(NC(=O)N3CC(c4cccnc4)C3)cc2)CC1` (stereo not drawn) [Example 164, N-(4-{1-[(2-methylcyclopropyl)carbonyl]piperidin-4-yl}phenyl)-3-(pyridin-3-yl)azetidine-1-carboxamide] were, in that order, 25.9 nM, 15.9 nM and 0.313 nM.
For the compound `O=C(Nc1ccc(C2CCN(C(=O)C3CCCC3)CC2)cc1)N1CC(c2cccnc2)C1` [Example 180, N-{4-[1-(cyclopentylcarbonyl)piperidin-4-yl]phenyl}-3-(pyridin-3-yl)azetidine-1-carboxamide], the 50% inhibitory concentration (IC50) in the experiment on PC3 cells is 67.7 nM; on NAMPT [1] it was 21.3 nM; at NAMPT [2], 0.284 nM.
Take `O=C(Nc1ccc(C2CCN(C(=O)c3cccs3)CC2)cc1)N1CC(c2cccnc2)C1` [Example 188, 3-(pyridin-3-yl)-N-{4-[1-(thiophen-2-ylcarbonyl)piperidin-4-yl]phenyl}azetidine-1-carboxamide]: the half-inhibitory concentration (IC50) in the experiment with PC3 cells was determined as 2.25 nM; on NAMPT [1] it was 2.1 nM; at NAMPT [2] it was 0.188 nM.
In the same order, the values of `CC(C)(C)C(=O)N1CCC(Oc2ccc(NC(=O)N3CC(c4cccnc4)C3)cc2)CC1` [Example 44, N-(4-{[1-(2,2-dimethylpropanoyl)piperidin-4-yl]oxy}phenyl)-3-(pyridin-3-yl)azetidine-1-carboxamide] are 38.5 nM, 44.6 nM and 0.315 nM.
In the same order, the values of `O=C(Nc1ccc(OC2CCN(C(=O)c3cccs3)CC2)cc1)N1CC(c2cccnc2)C1` [Example 32, 3-(pyridin-3-yl)-N-(4-{[1-(thiophen-2-ylcarbonyl)piperidin-4-yl]oxy}phenyl)azetidine-1-carboxamide] are 58.7 nM, 18.8 nM and 0.209 nM.
The like results for `O=C(Nc1ccc(C2CCN(C(=O)c3ccoc3)C2)cc1)N1CC(c2cccnc2)C1` (stereo not drawn) [Example 264, N-{4-[1-(furan-3-ylcarbonyl)pyrrolidin-3-yl]phenyl}-3-(pyridin-3-yl)azetidine-1-carboxamide] were, in that order, 35.1 nM, 40.9 nM and 0.188 nM.
Consider `CC(C)C(C)C(=O)N1CCC(c2ccc(NC(=O)N3CC(c4cccnc4)C3)cc2)C1` (stereo not drawn) [Example 296, N-{4-[1-(2,3-dimethylbutanoyl)pyrrolidin-3-yl]phenyl}-3-(pyridin-3-yl)azetidine-1-carboxamide], for which the IC50 in the experiment on PC3 cells worked out at 19.8 nM; at NAMPT [1], 26.4 nM; on NAMPT [2], 0.243 nM.
In the same order, the values of `O=C(Nc1ccc(OC2CN(C(=O)c3cccs3)C2)cc1)N1CC(c2cccnc2)C1` [Example 141, 3-(pyridin-3-yl)-N-(4-{[1-(thiophen-2-ylcarbonyl)azetidin-3-yl]oxy}phenyl)azetidine-1-carboxamide] are 8.33 nM, 17.6 nM and 0.249 nM.
Consider `COCCOCC(=O)N1CC(c2ccc(NC(=O)N3CC(c4cccnc4)C3)cc2)C1` [Example 210, N-(4-{1-[(2-methoxyethoxy)acetyl]azetidin-3-yl}phenyl)-3-(pyridin-3-yl)azetidine-1-carboxamide], for which the IC50 in the experiment on PC3 cells is 218 nM; at NAMPT [1], 206 nM; on NAMPT [2] it was 0.356 nM.
In the same order, the values of `CC(C)CCN1CC(c2ccc(NC(=O)N3CC(c4cccnc4)C3)cc2)C1` [Example 252, N-{4-[1-(3-methylbutyl)azetidin-3-yl]phenyl}-3-(pyridin-3-yl)azetidine-1-carboxamide] are 401 nM, 526 nM and 0.296 nM.
The like results for `CCOCC(=O)N1CC(Oc2ccc(NC(=O)N3CC(c4cccnc4)C3)cc2)C1` [Example 119, N-(4-{[1-(ethoxyacetyl)azetidin-3-yl]oxy}phenyl)-3-(pyridin-3-yl)azetidine-1-carboxamide] were, in that order, 76.9 nM, 117 nM and 0.978 nM.
In the same order, the values of `O=C(CC1CCCCC1)N1CCC(c2ccc(NC(=O)N3CC(c4cccnc4)C3)cc2)CC1` [Example 178, N-{4-[1-(cyclohexylacetyl)piperidin-4-yl]phenyl}-3-(pyridin-3-yl)azetidine-1-carboxamide] are 75 nM, 13.9 nM and 0.42 nM.
In the case of `CC(C)(C)C(=O)N1CCC(c2ccc(NC(=O)N3CC(c4cccnc4)C3)cc2)CC1` [Example 171, N-{4-[1-(2,2-dimethylpropanoyl)piperidin-4-yl]phenyl}-3-(pyridin-3-yl)azetidine-1-carboxamide], the concentration for half-maximal inhibition (IC50) in the experiment on PC3 cells was found to be 22 nM; on NAMPT [1] it was 8.74 nM; on NAMPT [2] it was 0.231 nM.
The like results for `CC(C)(O)C(=O)N1CCC(c2ccc(NC(=O)N3CC(c4cccnc4F)C3)cc2)CC1` [Example 156, 3-(2-fluoropyridin-3-yl)-N-{4-[1-(2-hydroxy-2-methylpropanoyl)piperidin-4-yl]phenyl}azetidine-1-carboxamide] were, in that order, 74.7 nM, 2.71 nM and 0.237 nM.
Consider `CC[C@H](C)C(=O)N1CC[C@@H](Oc2ccc(NC(=O)N3CC(c4cccnc4)C3)cc2)C1` [Example 86, N-[4-({(3R)-1-[(2S)-2-methylbutanoyl]pyrrolidin-3-yl}oxy)phenyl]-3-(pyridin-3-yl)azetidine-1-carboxamide], for which the figures for the IC50 in the experiment on PC3 cells, at NAMPT [1] and on NAMPT [2] were 5.48 nM, 27.4 nM and 0.244 nM, respectively.

The record behind these values is patent publication US9296723B2, “NAMPT inhibitors” (AbbVie Inc., priority 2012, dated 2016).
